The nature of data set [1]: Microsomal stability (liver microsomal assay, mixed cofactors); predicted hepatic clearance. The conditions noted are these: liver microsomes 1.0 mg protein/mL (+UDPGA +NADPH), 1 μM analyte, 37° C.; scaled with human liver weight and hepatic blood flow 1.3 L/hr/kg. The data set is classed as in vitro ADME. Here is the method: Metabolic stability of compounds was assessed using human or rat liver microsomal assays (Corning). In these assays, 10 nL of each analyte at a concentration of 1 mM in 100% DMSO was dispensed into a well of a polypropylene plates using the Echo 550 acoustic liquid dispenser (Labcyte®). Each plate contained 384 wells with a single analyte in each well.
A solution of human (Corning® Gentest™ Human Mixed Pooled Microsomes or rat (Corning® Gentest™ Rat [Sprague-Dawley] Pooled Liver Microsomes) liver microsomes at 2 mg/ml in 100 mM K2HPO4/KH2PO4 at pH 7. 4 was combined with alamethicin from Trichoderma viride (Sigma-Aldrich) 0.0225 mg/ml. The mixture was incubated on ice for 15 minutes. 5 μL of this mixture was added to individual wells following a 15 minute incubation at room temperature and supplemented with 5 μL NADPH Regenerating Solution of cofactors (Corning® Gentest™ UGT Reaction Mix) containing 100 mM K2HPO4/KH2PO4 at pH 7.4, 2.6 mM NADP+, 6.6 mM glucose-6-phosphate, 6.6 mM MgCl2, 0.8 U/mL glucose-6-phosphate dehydrogenase, 0.1 mM sodium citrate, and 6.8 mM uridine diphosphate-glucuronic acid. The final concentration of each analyte compound at the beginning of the reaction was 1 μM. The reactions were incubated at 37° C. and samples were collected at time points of 0, 5, 15, 30, 40, 50, 60, and 70 minutes for further analysis. Background data were collected using reactions without analyte compounds.
Upon collection of the sample time points, samples were quenched with 30 μL of a solution of 72% acetonitrile, 8% methanol, 0.1% formic acid, 19.9% water, and internal standard (IS). Reaction plates were spun in a centrifuge at speed of 4,000 rcf for 30 minutes at 4° C., following a dilution of the 10 μL quenched reaction into 40 μL de-ionized water, yielding assay plates.
Assay plates were analyzed using solid-state extraction coupled with quadrupole time-of-flight mass spectrometer, using Agilent QToF 6530 RapidFire 360 system, with C4 type A solid state cartridges. Analysis was performed in either positive or negative ionization modes. Mobile phases contained 0.1% formic acid in water for loading analytes onto solid state extraction cartridges and 0.1% formic acid in acetonitrile for elution into a mass spectrometer in positive ionization mode, or 0.1% acetic acid in water for loading and 0.1% acetic acid in acetonitrile for extraction in negative ionization mode. Peak-area ratios of integrated counts for individual compounds to IS were plotted as semi-logarithmic chart of log vs time. The initial linear portion of decay was fitted to a linear regression equation to derive the half-time of analyte decay.
Pharmacological parameters for an analyte compound metabolism were calculated using the following equations: […]
wherein concentration refers to the protein concentration (mg/ml) in the reaction.
This scales the in vitro intrinsic clearance up to the value that would be predicted for the entire mass of liver tissue (but with no restriction by blood flow). The value depends upon the size of the liver (species-dependent) and the yield of microsomal protein as appropriate (assumed to be species-independent).
Hepatic clearance will depend upon the inter-relationship of intrinsic clearance and hepatic blood flow and was predicted from in vitro data using a variety of approaches.
The hepatic extraction is reported as the predicted clearance expressed as a proportion of hepatic blood flow.

The target in a further data set is GLP-1R (Homo sapiens (Human), UniProt P43220). The data set is described as follows: GLP-1R activation: cAMP increase in CHO cells stably expressing GLP-1R. The data set is classed as cell-based. Conditions: cAMP increase, 10 point dose response, 30 minutes incubation at 37° C., read-out: EC50. On the procedure: GLP-1R activation by a compound of the present disclosure was quantified by measuring cAMP increase in CHO cells stably expressing GLP-1R (MultiSpan product #C1267-1a). […] The cells were then incubated overnight at 37° C., 5% CO2. […] 1% BSA (Rockland Immunochemicals product #BSA-1000)). Following the medium change, the cells were incubated for 1 hour at 37° C., 5% CO2. The tested GLP-1 compound was added to the cells in a 10 point dose response followed by a 30 minutes incubation at 37° C., 5% CO2. cAMP concentration increase was then detected using Cisbio's cAMP Gs Dynamic Kit (product #62AM4PEC) according to the manufacturer's protocol. The response was plotted against the log of the agonist concentration and fitted to a sigmoidal equation to determine the EC50.
GLP-1R, sequence (P43220 24-463): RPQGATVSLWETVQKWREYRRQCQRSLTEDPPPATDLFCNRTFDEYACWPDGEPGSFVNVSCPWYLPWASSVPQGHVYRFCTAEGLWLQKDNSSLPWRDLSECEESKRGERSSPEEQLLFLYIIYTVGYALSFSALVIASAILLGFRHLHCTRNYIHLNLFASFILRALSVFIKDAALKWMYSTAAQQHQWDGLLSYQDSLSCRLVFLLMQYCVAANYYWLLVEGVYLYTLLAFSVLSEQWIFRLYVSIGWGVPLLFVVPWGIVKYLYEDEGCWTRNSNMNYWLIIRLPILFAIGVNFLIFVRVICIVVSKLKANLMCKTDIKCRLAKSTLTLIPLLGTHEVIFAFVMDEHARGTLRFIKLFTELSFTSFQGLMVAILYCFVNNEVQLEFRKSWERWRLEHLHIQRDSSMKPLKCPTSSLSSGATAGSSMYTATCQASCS

Usually EC50 stands for the concentration that produces a half-maximal response. For `CC1(c2ccc(Cl)cn2)Oc2cccc(-c3cc(F)c(Cc4nc5ccc(C(=O)O)cc5n4C[C@@H]4CCO4)c(F)c3)c2O1` (single isomer, unassigned) [Example 50], in data set [1], the “Predicted Hepatic Clearance (Pred. Cl.)” value is 3.17 mL/min/kg. Besides, on GLP-1R, the concentration for a half-maximal effect (EC50) is 16 nM.

For the molecule `CCn1cnnc1Cn1c(Cc2c(F)cc(-c3cccc4c3OC(C)(c3ccc(Cl)cc3F)O4)cc2F)nc2ccc(C(=O)O)cc21` (centres unmarked) [Example 68, 2-(4-(2-(4-chloro-2-fluorophenyl)-2-methylbenzo[d][1, 3]dioxol-4-yl)-2,6-difluorobenzyl)-1-((4-ethyl-4H-1,2,4-triazol-3-yl)methyl)-1H-benzo[d]imidazole-6-carboxylic acid], in data set [1], the “Predicted Hepatic Clearance (Pred. Cl.)” value was 2.83 mL/min/kg. In addition, the EC50 on GLP-1R amounted to 12 nM.

Take `COCCn1c(Cc2ccc(-c3cccc4c3OC(C)(c3ccc(Cl)cc3F)O4)s2)nc2ccc(C(=O)O)cc21` (centres unmarked) [Example 8, 2-((5-(2-(4-chloro-2-fluorophenyl)-2-methylbenzo[d][1, 3]dioxol-4-yl)thiophen-2-yl)methyl)-1-(2-methoxyethyl)-1H-benzo[d]imidazole-6-carboxylic acid]: in data set [1], the “Predicted Hepatic Clearance (Pred. Cl.)” value was 7.83 mL/min/kg. Further, the concentration for a half-maximal effect (EC50) at GLP-1R was determined as 78 nM.

For the molecule `N#Cc1ccc(C2Oc3cccc(-c4cc(F)c(Cc5nc6ccc(C(=O)O)cc6n5C[C@@H]5CCO5)c(F)c4)c3O2)c(F)c1` (single isomer, unassigned) [Example 41], in data set [1], the “Predicted Hepatic Clearance (Pred. Cl.)” value was 2.83 mL/min/kg. Moreover, the 50% effective concentration (EC50) on GLP-1R came out at 438 nM.

In the case of `COCCn1c(Cc2c(F)cc(-c3cccc4c3OC(C)(c3ccc(C#N)cc3F)O4)cc2F)nc2ccc(C(=O)O)cc21` (single isomer, unassigned) [Example 99, 2-(4-(2-(4-cyano-2-fluorophenyl)-2-methylbenzo[d][1, 3]dioxol-4-yl)-2,6-difluorobenzyl)-1-(2-methoxyethyl)-1H-benzo[d]imidazole-6-carboxylic acid], the “Predicted Hepatic Clearance (Pred. Cl.)” value in data set [1] is 11.3 mL/min/kg. Further, at GLP-1R, the EC50 was 2.4 nM.

Take `COCCn1c(Cc2c(F)cc(-c3cccc4c3OC3(c5ccc(Cl)cc5)CCCN43)cc2F)nc2ccc(C(=O)O)cc21` (centres unmarked) [Example 16, 2-(4-(3a-(4-chlorophenyl)-1,2,3,3a-tetrahydrobenzo[d]pyrrolo[2,1-b]oxazol-5-yl)-2,6-difluorobenzyl)-1-(2-methoxyethyl)-1H-benzo[d]imidazole-6-carboxylic acid]: the “Predicted Hepatic Clearance (Pred. Cl.)” value in data set [1] was 9 mL/min/kg. In addition, the EC50 on GLP-1R was found to be 6920 nM.

Turning to `CC1(c2ccc(Cl)cc2F)Oc2cccc(-c3cc(F)c(Cc4nc5ccc(C(=O)O)cc5n4C[C@@H]4CCO4)cc3F)c2O1` (single isomer, unassigned) [Example 43], the “Predicted Hepatic Clearance (Pred. Cl.)” value in data set [1] is 4.67 mL/min/kg. Besides, the EC50 on GLP-1R was determined as 7.4 nM.

With `COCCn1c(Cc2c(F)cc(-c3cccc4c3OC(C)(c3ccc(C#N)cc3F)O4)c(F)c2F)nc2ccc(C(=O)O)cc21` (single isomer, unassigned) [Example 96, 2-(4-(2-(4-cyano-2-fluorophenyl)-2-methylbenzo[d][1, 3]dioxol-4-yl)-2,3,6-trifluorobenzyl)-1-(2-methoxyethyl)-1H-benzo[d]imidazole-6-carboxylic acid], the “Predicted Hepatic Clearance (Pred. Cl.)” value in data set [1] was 3.5 mL/min/kg. On GLP-1R, the EC50 stood at 57 nM.

In the case of `CC1(c2ccc(C#N)cc2F)Oc2cccc(-c3cc(F)c(Cc4nc5ccc(C(=O)O)cc5n4C[C@@H]4CCO4)c(F)c3F)c2O1` (single isomer, unassigned) [Example 94], in data set [1], the “Predicted Hepatic Clearance (Pred. Cl.)” value was 7 mL/min/kg. For the same molecule, the EC50 on GLP-1R is 0.32 nM.

With `CC1(c2ccc(Cl)cc2F)Oc2cccc(-c3cc(F)c(Cc4nc5ccc(C(=O)O)cc5n4CCOC(F)F)c(F)c3)c2O1` (centres unmarked) [Example 83, 2-(4-(2-(4-chloro-2-fluorophenyl)-2-methylbenzo[d][1, 3]dioxol-4-yl)-2,6-difluorobenzyl)-1-(2-(difluoromethoxy)ethyl)-1H-benzo[d]imidazole-6-carboxylic acid], the “Predicted Hepatic Clearance (Pred. Cl.)” value in data set [1] was 3.3 mL/min/kg. Besides, the EC50 on GLP-1R came to 13 nM.

(Values after patent publication US20250099431A1, “GLP-1R MODULATING COMPOUNDS” (priority 2020, published 2025).)
